# Where “and” joins values, the source holds several entries; their conditions need not be identical. Equal values may be shown once.
# Experiments:
# [1] = test system: hind paw of mice; test: Electronic Von-Frey mechanical sensitivity (withdrawal thresholds) after Paclitaxel-induced neuropathic pain; assay type: in vivo; conditions: for Withdrawal test, test 1 / Withdrawal test, test 4 / Withdrawal test, test 5 / Withdrawal test, test 2 / Withdrawal test, test 3 / Withdrawal test, test 6: per animal; for Withdrawal test, All group average: 8 mice; for Withdrawal test, Average: average per animal; for Withdrawal test, Change from b.l.: group average vs baseline; for Withdrawal test, test 6: additional test
# Method: Mechanical sensitivity was evaluated by measuring the changes in tactile sensitivity in the hind paw of mice, using an Electronic Von-Frey apparatus (EVF). Withdrawal thresholds were measured, using the EVF apparatus, first at baseline (time=0) and then following drug, in a few periods after administration, by applying an accurate force on specific areas of the skin and measuring the needed force for the mouse to lift its paw.
# Paclitaxel was utilized for the stimulation of a chemotherapy-induced neuropathic pain. Paclitaxel is anti-cancer chemotherapy drug classified as a “plant alkaloid” and an “antimicrotubule agent”.
# Mice were divided into three groups of 8 mice each, as follows: • (a) Group no. 1—Morphine as positive control; • (b) Group no. […] 3—synthetic THC derivative 9-Desmethyl THC.
# A portion of Paclitaxel was administered to each mouse by i.p. injection, on days 1, 3, 5 and 7 from the beginning of the experiment. At day 8, withdrawal thresholds were measured first at baseline (time=0), thereafter each mouse received a single portion of a drug substance, at 5 mg/Kg body weight concentration, by oral gavage and measurements took place.
# The first checking point was 1 hour after administration of each drug. For every mouse, its threshold for the pain perception in which it removes its hind paw after the stabbing of the Von-Frey hair has been checked. Needed force (in gram force units) was measured each time and was recorded for every checking. This test was repeated 5 times for each mouse consecutively.
# This procedure was repeated for all the three groups. The next checking point was 3 hours after administration, where the last withdrawal thresholds measurements were performed on the next morning, on day 9, which was 24 hours after administration.
# Morphine was utilized as a positive control where group no. 1 mice received morphine (dissolved in a saline solution (0.9%) and injected subcutaneously) as an analgesic agent, prior to the mechanical sensitivity tests.
# The tests described in this example are complicated and depend on numerous factors. Accordingly, results above 10.0 gram force (marked with an asterisk) were not included in the evaluation of the experimental data. In cases of exceptional results, an additional test was performed mouse (test 6) in order to assure the exceptional result.
# [2] = test system: mice; test: Hot plate assay, withdrawal reflex latency (WRL); assay type: in vivo; conditions: for Hot plate Time: per animal
# [3] = Pharmacokinetics, blood samples (Example 17); conditions: 0.5 h after i.p. injection of THC or THC-d5, label = analyte
# Method: The pharmacokinetics of 9-CD3-(8-D2)-THC compared to natural THC was evaluated using both intraperitoneal i.p. injection and an oral gavage administration for each material. The mice were divided into four groups containing 6 mice (24 mice total). For each group of mice, a blood sample was withdrawn at baseline (t=0), and half-hour intervals (t=0.5, 2 and 5 h) after administration of the drug. Three mice, half of each group, were euthanized with CO2 after 5 h and their organs (brain and liver) were collected. From the second half of each group, another blood sample was withdrawn 24 h after administration, and then these animals were euthanized and the brain and liver were collected for analysis.
# [4] = Pharmacokinetics, liver samples (Example 17); assay type: in vivo, mice; conditions: label = analyte
# [5] = Persistence over time, blood samples (Example 18); assay type: in vivo, mice; conditions: label = analyte
# Method: (§1) Blood samples from each mouse were collected at each time point for the pharmacokinetics tests. For 6 h after administrating of all tested drugs, and after testing their WRL on the hot plate, half the mice (n=3) of each group were sacrificed, and the liver and brain of each animal were taken for pharmacokinetics tests. From the remaining mice, blood samples were acquired at 12 h after administration for pharmacokinetics tests. At 24 h after drug administration, and after checking the WRL again, second half of each group of mice were sacrificed, and the liver and brain of each animal were taken for pharmacokinetics tests.
# [6] = Persistence over time, brain samples postmortem (Example 18); assay type: in vivo, mice; conditions: 8 mg/kg administered, died at 6 h; number in brackets = mice with a value
# Method: as §1
# (§2) All the results of the brain and liver samples, which were taken postmortem 6 h or 24 h after administration (n=3) are summarized in Tables 12-13.
# [7] = Persistence over time, liver samples postmortem (Example 18); assay type: in vivo, mice
# Method: as §1, §2
# [8] = t = 1 h after 5 mg/Kg, * values excluded
# [9] = t = 3 h after 5 mg/Kg, * values excluded
# [10] = t = 24 h after 5 mg/Kg, * values excluded
# [11] = 5 h after oral gavage administration of THC or THC-d5
compound,measurement,setting,value
"CN1CC[C@]23c4c5ccc(O)c4O[C@H]2[C@@H](O)C=C[C@H]3[C@H]1C5 [Morphine, reference compound]","Withdrawal test, test 1","[1]; t = 1 h after 5 mg/Kg single dose (oral gavage; morphine s.c.), * values >10.0 excluded from evaluation",4.4 gram force (2×) and 8.5 gram force and 8.4 gram force and 5.2 gram force and 5.9 gram force and 4.7 gram force and 5.6 gram force
same,"Withdrawal test, All group average",[1]; t = 1 h after 5 mg/Kg,6.21 gram force
same,"Withdrawal test, Average",[1]; t = 1 h after 5 mg/Kg,5.68 gram force (2×) and 7.80 gram force and 7.17 gram force and 6.62 gram force and 6.02 gram force and 5.26 gram force and 5.45 gram force
same,"Withdrawal test, Change from b.l.",[1]; t = 1 h after 5 mg/Kg,+6.7%
same,"Withdrawal test, Change from b.l.","[1]; t = 1 h after 5 mg/Kg, listed as morphine",6.7%
same,"Withdrawal test, test 4",[1]; t = 1 h after 5 mg/Kg,9.1 gram force and 8.3 gram force and 7.4 gram force and 6.5 gram force and 5.0 gram force and 4.2 gram force and 5.3 gram force and 4.4 gram force
same,"Withdrawal test, test 5",[1]; t = 1 h after 5 mg/Kg,4.2 gram force and 9.8 gram force and 5.7 gram force and 9.0 gram force and 4.9 gram force and 9.2 gram force and 7.5 gram force and 5.8 gram force
same,"Withdrawal test, test 2",[1]; [8],6.5 gram force and 4.3 gram force and *10.3 gram force and 7.9 gram force and 8.3 gram force and 7.6 gram force and 4.2 gram force and 6.0 gram force
same,"Withdrawal test, test 3",[1]; [8],4.2 gram force and 8.1 gram force and *10.5 gram force and 4.5 gram force and 4.3 gram force and 4.4 gram force and 4.9 gram force and *10.2 gram force
same,"Withdrawal test, All group average",[1]; t = 3 h after 5 mg/Kg,5.79 gram force
same,"Withdrawal test, Average",[1]; t = 3 h after 5 mg/Kg,6.28 gram force and 6.00 gram force and 4.68 gram force and 5.50 gram force and 5.66 gram force and 5.12 gram force and 6.34 gram force and 5.34 gram force
same,"Withdrawal test, Change from b.l.",[1]; t = 3 h after 5 mg/Kg,−0.5%
same,"Withdrawal test, Change from b.l.","[1]; t = 3 h after 5 mg/Kg, listed as morphine",−0.5%
same,"Withdrawal test, test 2",[1]; t = 3 h after 5 mg/Kg,5.5 gram force (2×) and 6.8 gram force and 4.3 gram force and 6.1 gram force and 5.9 gram force and 4.4 gram force and 5.3 gram force
same,"Withdrawal test, test 4",[1]; t = 3 h after 5 mg/Kg,5.5 gram force and 4.9 gram force and 4.6 gram force and 4.3 gram force and 7.0 gram force and 5.3 gram force and 6.4 gram force and 5.8 gram force
same,"Withdrawal test, test 5",[1]; t = 3 h after 5 mg/Kg,6.9 gram force and 8.6 gram force and 5.5 gram force and 5.6 gram force and 4.6 gram force and 5.2 gram force and 6.1 gram force and 5.7 gram force
same,"Withdrawal test, test 6",[1]; t = 3 h after 5 mg/Kg,7.0 gram force and 4.5 gram force
same,"Withdrawal test, test 1",[1]; [9],7.2 gram force and 5.3 gram force (2×) and *11.6 gram force and 6.6 gram force and 5.6 gram force and 6.4 gram force and 5.4 gram force
same,"Withdrawal test, test 3",[1]; [9],6.3 gram force and 4.4 gram force and 4.3 gram force (2×) and 4.9 gram force and 5.2 gram force and 8.4 gram force and 4.5 gram force
same,"Withdrawal test, All group average",[1]; t = 24 h after 5 mg/Kg,5.09 gram force
same,"Withdrawal test, Average",[1]; t = 24 h after 5 mg/Kg,5.23 gram force and 4.80 gram force and 5.44 gram force and 5.28 gram force and 4.32 gram force and 6.08 gram force and 4.54 gram force and 5.00 gram force
same,"Withdrawal test, Change from b.l.",[1]; t = 24 h after 5 mg/Kg,−12.5%
same,"Withdrawal test, Change from b.l.","[1]; t = 24 h after 5 mg/Kg, listed as morphine",−12.5%
same,"Withdrawal test, test 1",[1]; t = 24 h after 5 mg/Kg,5.2 gram force (2×) and 4.0 gram force (2×) and 4.3 gram force and 4.1 gram force and 6.9 gram force and 5.4 gram force
same,"Withdrawal test, test 2",[1]; t = 24 h after 5 mg/Kg,4.7 gram force (3×) and 5.2 gram force and 5.3 gram force and 5.8 gram force and 6.0 gram force and 4.0 gram force
same,"Withdrawal test, test 3",[1]; t = 24 h after 5 mg/Kg,4.5 gram force and 6.5 gram force and 4.1 gram force (2×) and 4.0 gram force and 4.8 gram force and 5.1 gram force and 4.2 gram force
same,"Withdrawal test, test 6",[1]; t = 24 h after 5 mg/Kg,6.5 gram force and 4.3 gram force
same,"Withdrawal test, test 4",[1]; [10],*12.9 gram force and 4.0 gram force and 4.1 gram force and 6.7 gram force and 4.7 gram force (2×) and 4.6 gram force and 7.4 gram force
same,"Withdrawal test, test 5",[1]; [10],6.5 gram force and 4.3 gram force (2×) and 9.4 gram force and 4.6 gram force and 4.1 gram force and 8.0 gram force and 4.0 gram force
same,Hot plate Avg. 6 mice,"[2]; 5 mg/kg oral, t = 0.5 h",14.43 s
same,Hot plate Time,"[2]; 5 mg/kg oral, t = 0.5 h, cut-off 30 s",15.7 s and 13.1 s and 10.5 s and 23.8 s and 12.4 s and 11.1 s
same,Hot plate Avg. 6 mice,"[2]; 5 mg/kg oral, t = 3 h",14.05 s
same,Hot plate Time,"[2]; 5 mg/kg oral, t = 3 h",16.8 s and 11.4 s and 20.5 s and 12.6 s and 14.5 s and 8.5 s
same,Hot plate Avg. 6 mice,"[2]; 5 mg/kg oral, t = 6 h",14.25 s
same,Hot plate Time,"[2]; 5 mg/kg oral, t = 6 h",12.7 s and 8.0 s and 26.6 s and 19.7 s and 12.0 s and 6.5 s
same,Hot plate Avg. 3 mice,"[2]; 5 mg/kg oral, t = 24 h",5.8 s
same,Hot plate Time,"[2]; 5 mg/kg oral, t = 24 h",2.4 s and 9.0 s and 5.9 s
same,average increase in WRL compared to baseline (t=0),"[2]; 5 mg/kg, 0.5 h",26.9%
same,change in average WRL compared to t=0 at baseline,"[2]; 5 mg/kg, 3 h",+23%
same,change in average WRL compared to baseline,"[2]; 5 mg/kg, 6 h",+25%
same,average WRL less than baseline,"[2]; 5 mg/kg, 24 h, 3 animals",about 50%
"CCCCCc1cc(O)c2c(c1)OC(C)(C)[C@@H]1CCC(C(=O)O)=C[C@@H]21 [11-COOH-THC, 11-nor-9-carboxy-THC]","Component in the blood, mouse 1",[3],30.26 ng/mL
same,"Component in the blood, mouse 2",[3],22.27 ng/mL
same,"Component in the blood, mouse 3",[3],20.76 ng/mL
same,"Component in the blood, mouse 4",[3],32.18 ng/mL
same,"Component in the blood, mouse 5",[3],25.30 ng/mL
same,"Component in the blood, mouse 6",[3],19.81 ng/mL
same,"Component in the blood, Average",[3]; n=6 (THC-d5 n=5),25.10 ng/mL
same,"Component in the liver, mouse 1",[4]; [11],38.89 ng/mL
same,"Component in the liver, mouse 2",[4]; [11],33.82 ng/mL
same,"Component in the liver, mouse 3",[4]; [11],25.34 ng/mL
same,"Component in the liver, Average","[4]; 5 h after oral gavage administration of THC or THC-d5, n=3",32.68 ng/mL
same,"Component in the liver, mouse 3",[4]; 24 h after i.p. injection of THC or THC-d5,1.49 ng/mL
same,"Average results, blood samples","[5]; 4 mg/kg administration of THC or THC-d5, Time 0.5 h",11.87 ng/mL
same,"Average results, blood samples","[5]; 4 mg/kg administration, Time 3 h",1.39 (4/4) ng/mL
same,"Average results, blood samples","[5]; 4 mg/kg administration, Time 6 h",0.41 (2/2) ng/mL
same,"Average results, blood samples","[5]; 8 mg/kg administration of THC or THC-d5, Time 0.5 h",15.85 ng/mL
same,"Average results, blood samples","[5]; 8 mg/kg administration, Time 3 h",3.44 ng/mL
same,"Average results, blood samples","[5]; 8 mg/kg administration, Time 6 h",3.57 ng/mL
same,"Average results, blood samples","[5]; 8 mg/kg administration, Time 12 h (3 mice)",1.89 ng/mL
same,Average results for 3 mice - brain samples,[6],2.04 (1) ng/g
same,"Average results for 3 mice (Table 13, liver)","[7]; 2 mg/kg administered, died at 6 h",3.83 ng/g
same,"Average results for 3 mice (Table 13, liver)","[7]; 4 mg/kg administered, died at 6 h",46.06 ng/g
same,"Average results for 3 mice (Table 13, liver)","[7]; 4 mg/kg administered, died at 24 h, number in brackets = mice with a value",2.89 (1) ng/g
same,"Average results for 3 mice (Table 13, liver)","[7]; 8 mg/kg administered, died at 6 h",60.95 ng/g

# From patent US20230331690A1, “THC DERIVATIVES, ORAL DOSAGE FORMS COMPRISING SAME, USES THEREOF FOR TREATING DISEASES AND DISORDERS AND SYNTHESIS THEREOF” (BAR-ILAN UNIVERSITY, priority 2020, published 2023)
